In patent publication US6894050B2, “5-HT receptor ligands and uses thereof” (Pfizer Inc., priority 2001, dated 2005):
Structures can show the parent of a compound that is named as a salt. Each block holds one compound with its values, some of them ahead of it.

Assays:
[1] = molecular target: T1, 5-HT2c receptor (5-HT2c expressed NIH 3T3 cells) (UniProt P28335); experiment: Functional Assay (FLIPR calcium fluorescence, Fluo 4-AM); type: cell-based
T1 sequence (P28335 1-458): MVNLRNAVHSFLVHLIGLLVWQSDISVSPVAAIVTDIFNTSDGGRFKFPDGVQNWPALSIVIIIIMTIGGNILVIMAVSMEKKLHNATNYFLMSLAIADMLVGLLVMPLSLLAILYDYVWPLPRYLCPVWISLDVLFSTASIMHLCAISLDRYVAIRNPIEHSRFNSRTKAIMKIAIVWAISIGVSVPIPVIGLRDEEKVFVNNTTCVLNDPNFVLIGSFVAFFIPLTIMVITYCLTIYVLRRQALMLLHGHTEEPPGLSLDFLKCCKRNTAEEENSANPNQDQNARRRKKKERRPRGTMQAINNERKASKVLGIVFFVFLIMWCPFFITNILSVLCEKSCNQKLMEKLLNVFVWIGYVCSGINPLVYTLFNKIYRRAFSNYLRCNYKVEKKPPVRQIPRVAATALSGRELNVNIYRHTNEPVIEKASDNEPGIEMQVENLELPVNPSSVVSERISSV
Description: […] Forty eight (48) hrs later the cells were loaded with the calcium sensitive dye, Fluo 4-AM (4 μM dissolved in DMSO containing pluronic acid) in serum free DMEM in the presence of probenicid (2.5 mM) for 75 minutes at 37° C. in a CO2 incubator. Unincorporated dye was removed by washing 3 times with a HEPES-buffered saline containing probenicid (2.5 mM) using a Skatron™ cell washer (final volume 30 μL).
Test compound additions were made simultaneously to all 384 wells after 20 seconds of baseline recording. Concentration-response curves were generated using Graphpad Prism™ (available from GraphPad Software, Inc., San Diego, Calif.) and agonist efficacies were generated as % of the response to 10 μM 5-HT (considered as 100%).

[2] = system: anaesthetised rabbit model of sexual arousal; experiment: Pelvic nerve-stimulated genital blood flow in the anaesthetised rabbit model of sexual arousal; type: in vivo; conditions: 5 mg/kg s.c.; for Compound-induced potentiation of stimulated vaginal blood flow: %
Description: Female New Zealand rabbits (˜2.5 kg) were pre-medicated with a combination of Medetomidine (Domitor®) 0.5 ml/kg intramuscularly (i.m.), and Ketamine (Vetalar®) 0.25 ml/kg i.m. whilst maintaining oxygen intake via a face mask. The rabbits were tracheotomised using a Portex™ uncuffed endotracheal tube 3 ID (internal diameter), connected to ventilator and maintained at a ventilation rate of 30-40 breaths per minute, with an approximate tidal volume of 18-20 ml, and a maximum airway pressure of 10 cm H2O. Anaesthesia was then switched to Isoflurane® and ventilation continued with O2 at 2 l/min. The right marginal ear vein was cannulated using a 23G or 24G catheter, and Lactated Ringer solution perfused at 0.5 ml/min. The rabbit was maintained at 3% Isoflurane® during invasive surgery, dropping to 2% for maintenance anaesthesia.
The left groin area of the rabbit was shaved and a vertical incision was made approximately 5 cm in length along the thigh. The femoral vein and artery were exposed, isolated and then cannulated with a PVC catheter (17G) for the infusion of drugs and compounds. Cannulation was repeated for the femoral artery, inserting the catheter to a depth of 10 cm to ensure that the catheter reached the abdominal aorta. This arterial catheter was linked to a Gould system to record blood pressure. Samples for blood gas analysis were also taken via the arterial catheter. Systolic and diastolic pressures were measured, and the mean arterial pressure calculated using the formula (diastolic×2+systolic)÷3. Heart rate was measured via the pulse oxymeter and Po-ne-mah data acquisition software system (Ponemah Physiology Platform, Gould Instrument Systems Inc).
A ventral midline incision was made into the abdominal cavity. The incision was about 5 cm in length just above the pubis. The fat and muscle was bluntly dissected away to reveal the hypogastric nerve which runs down the body cavity. It was essential to keep close to the side curve of the pubis wall in order to avoid damaging the femoral vein and artery, which lie above the pubis. The sciatic and pelvic nerves lie deeper and were located after further dissection on the dorsal side of the rabbit. Once the sciatic nerve is identified, the pelvic nerve was easily located. The term pelvic nerve is loosely applied; anatomy books on the subject fail to identify the nerves in sufficient detail. However, stimulation of the nerve causes an increase in vaginal and clitoral blood flow, and innervation of the pelvic region. The pelvic nerve was freed away from surrounding tissue and a Harvard bipolar stimulating electrode was placed around the nerve. The nerve was slightly lifted to give some tension, then the electrode was secured in position. Approximately 1 ml of light paraffin oil was placed around the nerve and electrode. This acts as a protective lubricant to the nerve and prevents blood contamination of the electrode. The electrode was connected to a Grass S88 Stimulator. The pelvic nerve was stimulated using the following parameters:—5V, pulse width 0.5 ms, duration of stimulus 10 seconds and a frequency range of 2 to 16 Hz. Reproducible responses were obtained when the nerve was stimulated every 15-20 minutes. A frequency response curve was determined at the start of each experiment in order to determine the optimum frequency to use as a sub-maximal response, normally 4 Hz. A ventral midline incision was made, at the caudal end of the pubis, to expose the pubic area. Connective tissue was removed to expose the tunica of the clitoris, ensuring that the wall was free from small blood vessels. The external vaginal wall was also exposed by removing any connective tissue. One laser Doppler flow probe was inserted 3 cm into the vagina, so that half the probe shaft was still visible. A second probe was positioned so that it lay just above the external clitoral wall. The position of these probes was then adjusted until a signal was obtained. […]

Structure (SMILES): C[C@H]1CN(c2cncc(OCc3cccc(F)c3)n2)CCN1 [Example 1-AL, 6′-(3-Fluoro-benzyloxy)-(3S)-methyl-3,4,5,6-tetrahydro-2H-[1,2′]bipyrazinyl]
functional behaviour at 5-HT2c [1]: acted as an antagonist

Structure (SMILES): Cc1cc(C)cc(COc2cncc(N3CCNCC3)n2)c1 [Example 1-AA, 6′-(3,5-Dimethyl-benzyloxy)-3,4,5,6-tetrahydro-2H-[1,2′]bipyrazinyl]
functional behaviour at 5-HT2c [1]: acted as an antagonist

Structure (SMILES): C[C@@H]1CNCCN1c1cncc(OCc2ccccc2F)n1 [Example 1-AH, 6′-(2-Fluoro-benzyloxy)-(2R)-methyl-3,4,5,6-tetrahydro-2H-[1,2′]bipyrazinyl]
functional behaviour at 5-HT2c [1]: acted as an antagonist

Structure (SMILES): C[C@@H](Oc1cncc(N2CCNCC2)n1)c1ccccc1 [Example 1-AE, 6′-[(1R)-Phenyl-ethoxy]-3,4,5,6-tetrahydro-2H-[1,2′]bipyrazinyl]
functional behaviour at 5-HT2c [1]: acted as an antagonist

Structure (SMILES): O=C1Nc2cc(Cl)c(Cl)cc2N2CCNCC12 (stereo not shown) [8,9-dichloro-2,3,4,4a-tetrahydro-1H-pyrazino[1,2-a]quinoxalin-5(6H)-one]
time after s.c. dosing at which potentiation was significant [2]: 30 min
time potentiation remained elevated [2]: circa 1 hr
effect on pelvic-nerve stimulated (PNS) increases in vaginal and clitoral blood flow ([2]; anaesthetised rabbit): potent enhancer
potentiation of pelvic nerve stimulated increases in genital blood flow ([2]; anaesthetised rabbit): circa 35%
effect on basal genital blood flow in the absence of PNS ([2]; no pelvic nerve stimulation): no effect
Pelvic nerve stimulated increases in vaginal blood flow ([2]; 15 min after injection): 292 Laser Doppler units
Unstimulated vaginal blood flow ([2]; 15 min after injection): 185 Laser Doppler units
Compound-induced potentiation of stimulated vaginal blood flow ([2]; 15 min after injection): 21%
Pelvic nerve stimulated increases in vaginal blood flow ([2]; 30 min after injection): 325 Laser Doppler units
Unstimulated vaginal blood flow ([2]; 30 min after injection): 162 Laser Doppler units
Compound-induced potentiation of stimulated vaginal blood flow ([2]; 30 min after injection): 34%
Pelvic nerve stimulated increases in vaginal blood flow ([2]; 45 min after injection): 295 Laser Doppler units
Unstimulated vaginal blood flow ([2]; 45 min after injection): 150 Laser Doppler units
Compound-induced potentiation of stimulated vaginal blood flow ([2]; 45 min after injection): 22%
Pelvic nerve stimulated increases in vaginal blood flow ([2]; 60 min after injection): 325 Laser Doppler units
Unstimulated vaginal blood flow ([2]; 60 min after injection): 127 Laser Doppler units
Compound-induced potentiation of stimulated vaginal blood flow ([2]; 60 min after injection): 34%
Pelvic nerve stimulated increases in vaginal blood flow ([2]; 75 min after injection): 252 Laser Doppler units
Unstimulated vaginal blood flow ([2]; 75 min after injection): 137 Laser Doppler units
Compound-induced potentiation of stimulated vaginal blood flow ([2]; 75 min after injection): 4%
Pelvic nerve stimulated increases in vaginal blood flow ([2]; 90 min after injection): 247 Laser Doppler units
Unstimulated vaginal blood flow ([2]; 90 min after injection): 132 Laser Doppler units
Compound-induced potentiation of stimulated vaginal blood flow ([2]; 90 min after injection): 2%

Structure (SMILES): Cl.Clc1ccc(CNc2cncc(N3CCNCC3)n2)cc1 [Example 4-C, (4-Chloro-benzyl)-(3,4,5,6-tetrahydro-2H-[1,2′]bipyrazinyl-6′-yl)-amine hydrochloride salt]
functional behaviour at 5-HT2c [1]: acted as an antagonist

Structure (SMILES): C[C@H](Oc1cncc(N2CCNCC2)n1)c1ccccc1 [Example 1-AF, 6′-[(1S)-Phenyl-ethoxy]-3,4,5,6-tetrahydro-2H-[1,2′]bipyrazinyl]
functional behaviour at 5-HT2c [1]: acted as an antagonist

Structure (SMILES): COCC[C@H](CC1(C(=O)NCCCc2ccc(Cl)cc2)CCCC1)C(=O)O (as salt: sodium)
melting point: 214 to 216 °C

Structure (SMILES): Cl.Fc1ccc(CNc2cncc(N3CCNCC3)n2)cc1 [Example 4-D, (4-Fluoro-benzyl)-(3,4,5,6-tetrahydro-2H-[1,2′]bipyrazinyl-6′-yl)-amine hydrochloride salt]
functional behaviour at 5-HT2c [1]: acted as an antagonist

More lines, now with the values ahead:

functional behaviour at 5-HT2c [1]: acted as an antagonist
Structure (SMILES): CC(Oc1cncc(N2CCNCC2)n1)c1cc(F)cc(F)c1 (stereo not shown) [Example 1-Z, 6′-[1-(3,5-Difluoro-phenyl)-ethoxy]-3,4,5,6-tetrahydro-2H-[1,2′]bipyrazinyl]

functional behaviour at 5-HT2c [1]: acted as an antagonist
Structure (SMILES): Clc1cccc(COc2cncc(N3CCNCC3)n2)c1Cl [Example 1-AO, 6′-(2,3-Dichloro-benzyloxy)-3,4,5,6-tetrahydro-2H-[1,2′]bipyrazinyl]

functional behaviour at 5-HT2c [1]: acted as an antagonist
Structure (SMILES): C[C@@H]1CN(c2cncc(OCc3cccc(Cl)c3)n2)CCN1 [Example 1-U, 6′-(3-Chloro-benzyloxy)-(3R)-methyl-3,4,5,6-tetrahydro-2H-[1,2′]bipyrazinyl]

functional behaviour at 5-HT2c [1]: acted as an antagonist
Structure (SMILES): CN1CCN(c2cncc(OCc3cccc(Cl)c3)n2)CC1 [Example 1-AS, 6′-(3-Chloro-benzyloxy)-4-methyl-3,4,5,6-tetrahydro-2H-[1,2′]bipyrazinyl]

functional behaviour at 5-HT2c [1]: acted as an antagonist
Structure (SMILES): Clc1cc(Cl)cc(COc2cncc(N3CCNCC3)n2)c1 [Example 1-N, 6′-(3,5-Dichloro-benzyloxy)-3,4,5,6-tetrahydro-2H-[1,2′]bipyrazinyl]

functional behaviour at 5-HT2c [1]: acted as an antagonist
Structure (SMILES): Clc1ccc(COc2cncc(N3CCNCC3)n2)cc1 [Example 1-R, 6′-(4-Chloro-benzyloxy)-3,4,5,6-tetrahydro-2H-[1,2′]bipyrazinyl]

activity at 10 μM ([1]; 10 μM): no activity
Structure (SMILES): C[C@@H]1CN(c2cncc(OCc3cccc(Cl)c3)n2)C[C@H](C)N1 [Example 1-V, 6′-(3-Chloro-benzyloxy)-(3R,5S)-dimethyl-3,4,5,6-tetrahydro-2H-[1,2′]bipyrazinyl]

functional behaviour at 5-HT2c [1]: acted as an antagonist
Structure (SMILES): FC(F)(F)c1cc(COc2cncc(N3CCNCC3)n2)cc(C(F)(F)F)c1 [Example 1-W, 6′-(3,5-Bis-trifluoromethyl-benzyloxy)-3,4,5,6-tetrahydro-2H-[1,2′]bipyrazinyl]

functional behaviour at 5-HT2c [1]: acted as an antagonist
Structure (SMILES): CN1CCN(c2cncc(OCc3cccc(F)c3)n2)CC1 [Example 1-AT, 6′-(3-Fluoro-benzyloxy)-4-methyl-3,4,5,6-tetrahydro-2H-[1,2′]bipyrazinyl]
